Laboratory results from ChEMBL document CHEMBL1126154, “Pyrrole mannich bases as potential antipsychotic agents” (J Med Chem, 1992).

Tests used:
[1] = test system: Rattus norvegicus; test: Antipsychotic activity at a dose 10 times the ED50 value for CAR block for production of catalepsy in the rat (following i.p. dosing); assay type: functional; settings: ip
[2] = target: T1, Serotonin 1 (5-HT1) receptor (Rattus norvegicus, UniProt P28564+P30940+P19327+P28565); test: The compound was tested for its binding affinity towards 5-hydroxytryptamine 1 receptor by displacing [3H]5-HT radioligand in rat cerebral cortex; assay type: tissue-based
[3] = target: Serotonin 2 (5-HT2) receptor (Rattus norvegicus, UniProt P30994+P08909+P14842); test: The compound was tested for its binding affinity towards 5-hydroxytryptamine 2 receptor by displacing [3H]ketanserin radioligand in rat cerebral cortex; assay type: tissue-based
[4] = target: T2, Adrenergic receptor alpha-1 (Rattus norvegicus, UniProt P15823+P23944+P43140); test: The compound was tested for its binding affinity towards Alpha-1 adrenergic receptor by displacing [3H]WB-4101 radioligand in rat cerebral cortex; assay type: tissue-based
T2 sequence (P15823 whole entry): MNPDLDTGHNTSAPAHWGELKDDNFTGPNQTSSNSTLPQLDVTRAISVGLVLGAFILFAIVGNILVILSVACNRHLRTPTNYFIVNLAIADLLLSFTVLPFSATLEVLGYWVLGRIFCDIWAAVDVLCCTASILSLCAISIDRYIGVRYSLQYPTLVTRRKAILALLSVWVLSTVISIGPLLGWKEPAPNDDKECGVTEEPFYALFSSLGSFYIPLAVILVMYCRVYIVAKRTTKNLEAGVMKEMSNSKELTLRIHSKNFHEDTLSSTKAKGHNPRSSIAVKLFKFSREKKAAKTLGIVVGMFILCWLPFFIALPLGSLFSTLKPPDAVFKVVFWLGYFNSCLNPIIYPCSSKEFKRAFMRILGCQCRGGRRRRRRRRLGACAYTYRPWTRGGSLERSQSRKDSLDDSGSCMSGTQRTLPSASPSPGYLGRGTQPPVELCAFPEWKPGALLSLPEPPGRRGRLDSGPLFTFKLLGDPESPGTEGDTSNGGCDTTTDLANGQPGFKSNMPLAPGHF
T2 sequence (P23944 whole entry): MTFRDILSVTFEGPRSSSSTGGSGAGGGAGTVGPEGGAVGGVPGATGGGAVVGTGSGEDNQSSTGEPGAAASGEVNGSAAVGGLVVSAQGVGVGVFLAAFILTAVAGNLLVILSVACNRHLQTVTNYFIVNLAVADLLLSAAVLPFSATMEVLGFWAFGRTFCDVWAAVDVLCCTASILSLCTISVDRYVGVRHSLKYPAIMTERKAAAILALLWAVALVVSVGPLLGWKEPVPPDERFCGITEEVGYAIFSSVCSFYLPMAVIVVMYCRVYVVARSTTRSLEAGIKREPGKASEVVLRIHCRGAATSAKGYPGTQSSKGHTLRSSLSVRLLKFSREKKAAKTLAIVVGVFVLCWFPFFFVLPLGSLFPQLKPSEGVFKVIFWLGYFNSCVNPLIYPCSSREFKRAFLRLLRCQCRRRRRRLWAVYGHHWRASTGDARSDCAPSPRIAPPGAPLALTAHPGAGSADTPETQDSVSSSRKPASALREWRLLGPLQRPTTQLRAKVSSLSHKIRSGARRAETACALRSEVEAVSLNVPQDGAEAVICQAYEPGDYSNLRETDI
T2 sequence (P43140 whole entry): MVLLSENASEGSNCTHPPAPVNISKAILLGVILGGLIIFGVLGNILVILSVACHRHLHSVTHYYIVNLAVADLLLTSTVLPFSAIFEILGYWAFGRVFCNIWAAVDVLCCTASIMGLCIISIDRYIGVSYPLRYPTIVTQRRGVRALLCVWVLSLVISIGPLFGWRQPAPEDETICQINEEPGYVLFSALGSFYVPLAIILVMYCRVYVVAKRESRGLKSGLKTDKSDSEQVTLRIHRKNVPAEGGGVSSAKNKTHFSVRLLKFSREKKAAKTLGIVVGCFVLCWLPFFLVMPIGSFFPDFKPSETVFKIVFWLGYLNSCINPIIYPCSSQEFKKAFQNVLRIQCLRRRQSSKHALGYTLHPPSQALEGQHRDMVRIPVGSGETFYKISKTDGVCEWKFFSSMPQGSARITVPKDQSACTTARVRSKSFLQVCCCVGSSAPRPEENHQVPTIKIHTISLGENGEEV

[5] = test system: Rattus norvegicus; test: The percentage production of catalepsy in rat at a dose of 58 mg/kg ip.; assay type: functional
[6] = target: 5-hydroxytryptamine receptor 1B (Rattus norvegicus, UniProt P28564); test: The compound was tested for its binding affinity towards 5-hydroxytryptamine 1B receptor by displacing [3H]serotonin radioligand in rat cerebral cortex; assay type: tissue-based
5-hydroxytryptamine receptor 1B, sequence (P28564 whole entry): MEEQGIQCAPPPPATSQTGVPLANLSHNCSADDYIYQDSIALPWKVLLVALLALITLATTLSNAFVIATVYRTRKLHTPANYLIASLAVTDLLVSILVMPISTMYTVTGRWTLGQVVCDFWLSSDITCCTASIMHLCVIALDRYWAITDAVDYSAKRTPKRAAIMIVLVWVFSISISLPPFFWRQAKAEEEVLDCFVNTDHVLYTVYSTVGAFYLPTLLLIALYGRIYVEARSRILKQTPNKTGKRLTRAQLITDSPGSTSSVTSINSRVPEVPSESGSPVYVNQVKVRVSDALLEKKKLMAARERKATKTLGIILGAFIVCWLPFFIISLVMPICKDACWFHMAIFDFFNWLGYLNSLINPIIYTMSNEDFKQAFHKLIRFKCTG

[7] = target: T3, 5-hydroxytryptamine receptor 1A (Rattus norvegicus, UniProt P19327); test: Binding affinity towards 5-hydroxytryptamine 1A receptor by displacing [3H]WB-4101 from rat hippocampus; assay type: tissue-based
T3 sequence (P19327 whole entry): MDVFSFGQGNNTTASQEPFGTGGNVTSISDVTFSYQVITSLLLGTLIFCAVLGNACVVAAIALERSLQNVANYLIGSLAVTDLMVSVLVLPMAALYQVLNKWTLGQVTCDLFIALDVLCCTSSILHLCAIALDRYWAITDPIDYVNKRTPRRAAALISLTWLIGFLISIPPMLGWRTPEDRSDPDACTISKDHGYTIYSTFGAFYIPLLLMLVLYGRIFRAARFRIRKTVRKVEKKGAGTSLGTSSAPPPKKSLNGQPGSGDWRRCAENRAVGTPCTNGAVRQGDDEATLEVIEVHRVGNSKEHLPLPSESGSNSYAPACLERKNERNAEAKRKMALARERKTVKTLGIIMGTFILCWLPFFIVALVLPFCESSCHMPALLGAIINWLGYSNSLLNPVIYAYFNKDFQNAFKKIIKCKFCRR

[8] = target: T3, 5-hydroxytryptamine receptor 1A; test: biochemical
Description: The compound was tested for its binding affinity towards 5-hydroxytryptamine 1A receptor by displacing [3H]WB-4101 radioligand in rat hippocampus

[9] = organism: Rattus norvegicus; test: ED50 value for catalepsy indicates the dose required to produce a 50% of maximum catalepsy score. parentheses value indicate 95% confidence limit.; assay type: functional
[10] = target: T1, Serotonin 1 (5-HT1) receptor
Description: The binding affinity was measured on serotonin 5-hydroxytryptamine 1 receptor in rat brain tissue

[11] = test system: Rattus norvegicus; test: The percentage production of catalepsy in rat at a dose of 40 mg/kg ip.; assay type: functional
[12] = test system: Rattus norvegicus; test: The compound was measured at a dose 10 times the ED50 value for CAR block for production of catalepsy in the rat via oral administration.; assay type: functional; settings: Rattus norvegicus, po; read-out: ED50
[13] = organism: Rattus norvegicus; test: (§1) ED50 value for catalepsy indicates the dose required to produce a 50% of maximum catalepsy score; assay type: functional
[14] = test system: Rattus norvegicus; test: The percentage production of catalepsy in rat at a dose of 25 mg/kg ip.; assay type: functional
[15] = organism: Rattus norvegicus; test: as §1; assay type: functional, organism-based
[16] = test system: Rattus norvegicus; test: The percentage production of catalepsy in rat at a dose of 4 mg/kg ip.; assay type: functional
[17] = organism: Rattus norvegicus; test: The compound was measured at a dose 10 times the ED50 value for CAR block for production of catalepsy in the rat; assay type: functional, organism-based

| Structure (SMILES) | Ki [2] [nM] | Ki [3] [nM] | Ki [4] [nM] | ED50 [1] [mg/kg] | also measured |
| --- | --- | --- | --- | --- | --- |
| Cn1c(CN2CCN(c3cccc(C(F)(F)F)c3)CC2)ccc1CN1CCCC1=O | 156 | 1000 | > 1000 | 5.8 | % catalepsy at 58 mg/kg [5]: 56% |
| CN(C)CCCN1c2ccccc2Sc2ccc(Cl)cc21 [CHLORPROMAZINE] |  |  |  | 1.9 | Ki [8]: 179 nM; ED50 [9]: 9.4 mg/kg; Ki [10]: > 1000 nM |
| COc1cccc(N2CCN(Cc3ccc(CN4CCCC4=O)n3C)CC2)c1 | > 1000 |  | 1000 | > 7.5 |  |
| COc1ccccc1N1CCN(Cc2ccc(CN3CCCC3=O)[nH]2)CC1 | 148 | 1000 | 43.1 | > 15 |  |
| Cn1c(CN2CCN(c3cccc(Cl)c3)CC2)ccc1CN1CCCC1=O | 196 | 256 | 264 | 12.3 |  |
| O=C(CCCN1CCC(O)(c2ccc(Cl)cc2)CC1)c1ccc(F)cc1 [HALOPERIDOL] |  |  |  |  | ED50 [9]: 0.36 mg/kg |
| CCCCOc1ccccc1N1CCN(Cc2ccc(CN3CCCCCC3=O)n2C)CC1 | 58.9 | 237 | 15.7 | > 15 |  |
| CC(C)Oc1ccccc1N1CCN(Cc2ccc(CN3CCCCCCC3=O)n2C)CC1 | 18.1 | 260 | 20.8 | 4 | % catalepsy at 40 mg/kg [11]: 4.2%; ED50 [12]: > 30 mg/kg; Ki [6]: 75 nM; Ki [7]: 1.7 nM |
| COc1ccccc1N1CCN(Cc2ccc(CN3CCCC3=O)n2-c2ccccc2)CC1 |  |  | 100 | > 15 |  |
| O=C1CCCN1Cc1ccc(CN2CCN(c3ccccc3)CC2)[nH]1 |  |  |  | > 15 |  |
| CN1CCN(CCCN2c3ccccc3Sc3ccc(C(F)(F)F)cc32)CC1 [TRIFLUOPERAZINE] | > 1000 |  | 29.3 | 0.5 | ED50 [13]: 1.7 mg/kg; Ki [7]: 411 nM |
| O=C1CC2(CCCC2)CC(=O)N1CCCCN1CCN(c2ncccn2)CC1 [BUSPIRONE] |  |  |  | 4.5 |  |
| CC(C)Oc1ccccc1N1CCN(Cc2ccc(CN3CCCCC3=O)[nH]2)CC1 | 33.1 | 55.3 | 5.2 | 4 | % catalepsy at 40 mg/kg [11]: 10%; Ki [7]: 5.4 nM |
| Cn1c(CN2CCN(c3ccccc3)CC2)ccc1CN1CCCC1=O |  |  | 436 | > 15 |  |
| Cn1c(CN2CCN(c3cccc([N+](=O)[O-])c3)CC2)ccc1CN1CCCC1=O | > 1000 | > 100 | > 100 | 15 |  |
| Cn1c(CN2CCN(c3cccc([N+](=O)[O-])c3)CC2)ccc1CN1CCCCC1=O |  | 669 |  | > 15 |  |
| Cn1c(CN2CCN(c3cccc(F)c3)CC2)ccc1CN1CCCC1=O | 1000 | > 100 | > 100 | > 15 |  |
| CCN1CCC[C@H]1CNC(=O)c1cc(S(N)(=O)=O)ccc1OC [LEVOSULPIRIDE] |  |  | > 1000 | > 40 | ED50 [13]: > 40 mg/kg |
| Cc1nc2n(c(=O)c1CCN1CCC(c3noc4cc(F)ccc34)CC1)CCCC2 [RISPERIDONE] |  |  |  |  | ED50 [15]: 3.5 mg/kg; % catalepsy at 4 mg/kg [16]: 50%; ED50 [12]: 2.2 mg/kg; ED50 [17]: 0.32 mg/kg |
| CC(C)c1ccccc1N1CCN(Cc2ccc(CN3CCCCCCC3=O)n2C)CC1 | 50.2 | 196 | 35.9 | > 15 |  |
| CCCCc1ccccc1N1CCN(Cc2ccc(CN3CCCC3=O)n2C)CC1 |  |  |  | > 15 |  |

Further lines, with some results ahead:

| Ki [2] [nM] | Ki [3] [nM] | Ki [4] [nM] | Structure (SMILES) | ED50 [1] [mg/kg] | also measured |
| --- | --- | --- | --- | --- | --- |
| 27.3 | 355 | 11.3 | CCc1ccccc1N1CCN(Cc2ccc(CN3CCCCC3=O)n2C)CC1 | > 15 | Ki [6]: 100 nM; Ki [7]: 30 nM |
| 283 | 317 | 26.6 | CCCc1ccccc1N1CCN(Cc2ccc(CN3CCCC3=O)n2C)CC1 | > 30 |  |
| 140 |  | 63.7 | Cn1c(CN2CCN(c3ccccc3C#N)CC2)ccc1CN1CCCC1=O | > 15 |  |
|  |  | 53.1 | Cn1c(CN2CCN(c3ccccc3Cl)CC2)ccc1CN1CCCC1=O | > 15 |  |
| 304 | 227 | 38.2 | CCc1ccccc1N1CCN(Cc2ccc(CN3CCCC3=O)n2C)CC1 | 15 |  |
|  |  | 140 | Cn1c(CN2CCN(c3ccccc3O)CC2)ccc1CN1CCCC1=O | > 15 |  |
| 76 | 409 | 20 | CC(C)c1ccccc1N1CCN(Cc2ccc(CN3CCCC3=O)n2C)CC1 | 5.8 |  |
| 41 | 1000 | 23.1 | COc1ccccc1N1CCN(Cc2ccc(CN3CCCCCCC3=O)n2C)CC1 | 8.2 | ED50 [12]: > 27 mg/kg; % catalepsy at 25 mg/kg [14]: 16.3% |
| 185 | > 1000 | 44.9 | COc1ccccc1N1CCN(Cc2ccc(CN3CCCC3=O)n2C)CC1 | 2.1 | ED50 [12]: > 20 mg/kg; % catalepsy at 25 mg/kg [14]: 31%; Ki [7]: 17.2 nM |
| 139 |  | 166 | COc1ccccc1N1CCN(Cc2ccc(CN3CCCCC3=O)n2C)CC1 | 2.3 | ED50 [12]: 9.7 mg/kg; % catalepsy at 25 mg/kg [14]: 39.8% |
| 120 | 669 | 43.7 | COc1ccccc1N1CCN(Cc2ccc(CN3CCCCCC3=O)n2C)CC1 | 2.1 | ED50 [12]: 30.5 mg/kg; % catalepsy at 25 mg/kg [14]: 51% |
| 1000 |  | 136 | Cc1ccccc1N1CCN(Cc2ccc(CN3CCCC3=O)n2C)CC1 | > 15 |  |
